Measurements: patent US20160052926A1, “NOVEL PYRIMIDINE AND PYRIDINE COMPOUNDS AND USAGE THEREOF” (HUTCHISON MEDIPHARMA LIMITED, priority 2013, published 2016)

How the values were obtained:
Recombinant human FGFR1 = Recombinant human FGFR1 (Homo sapiens, UniProt P11362); assay: Transcreener Kinase Assay of FGFR1; format: biochemical; conditions: read-out: FGFR1 (FP) IC50
Recombinant human FGFR2 = Recombinant human FGFR2 (Homo sapiens, UniProt P21802); assay: Transcreener Kinase Assay of FGFR2; format: biochemical; conditions: read-out: FGFR2 (FP) IC50
Sequence of Recombinant human FGFR2 (P21802 22-821): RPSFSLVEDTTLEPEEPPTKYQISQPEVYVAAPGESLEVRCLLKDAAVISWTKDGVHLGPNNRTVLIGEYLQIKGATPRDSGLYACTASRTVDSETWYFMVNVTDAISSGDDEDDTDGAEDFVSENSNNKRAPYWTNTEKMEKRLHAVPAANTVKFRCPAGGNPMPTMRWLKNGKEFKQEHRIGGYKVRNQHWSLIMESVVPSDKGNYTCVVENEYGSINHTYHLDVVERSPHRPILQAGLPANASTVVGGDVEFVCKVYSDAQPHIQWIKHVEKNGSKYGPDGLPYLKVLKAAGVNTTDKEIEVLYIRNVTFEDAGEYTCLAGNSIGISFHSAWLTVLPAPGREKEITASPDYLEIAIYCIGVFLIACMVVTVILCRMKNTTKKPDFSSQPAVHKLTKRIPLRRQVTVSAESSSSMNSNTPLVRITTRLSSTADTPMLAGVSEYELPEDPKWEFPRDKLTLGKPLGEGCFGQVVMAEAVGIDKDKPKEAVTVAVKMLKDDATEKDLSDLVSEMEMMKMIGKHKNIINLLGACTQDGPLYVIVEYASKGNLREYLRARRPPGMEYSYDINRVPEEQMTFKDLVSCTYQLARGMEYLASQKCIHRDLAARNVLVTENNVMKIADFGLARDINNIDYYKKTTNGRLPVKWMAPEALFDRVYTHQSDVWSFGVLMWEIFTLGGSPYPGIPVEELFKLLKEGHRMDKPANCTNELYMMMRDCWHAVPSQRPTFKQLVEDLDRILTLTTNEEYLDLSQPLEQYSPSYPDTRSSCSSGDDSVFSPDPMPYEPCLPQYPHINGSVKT

FGFR3 kinase = FGFR3 kinase (Homo sapiens, UniProt P22607); assay: Z-Lyte Kinase Assay of FGFR3; format: biochemical
Sequence of FGFR3 kinase (P22607 23-806): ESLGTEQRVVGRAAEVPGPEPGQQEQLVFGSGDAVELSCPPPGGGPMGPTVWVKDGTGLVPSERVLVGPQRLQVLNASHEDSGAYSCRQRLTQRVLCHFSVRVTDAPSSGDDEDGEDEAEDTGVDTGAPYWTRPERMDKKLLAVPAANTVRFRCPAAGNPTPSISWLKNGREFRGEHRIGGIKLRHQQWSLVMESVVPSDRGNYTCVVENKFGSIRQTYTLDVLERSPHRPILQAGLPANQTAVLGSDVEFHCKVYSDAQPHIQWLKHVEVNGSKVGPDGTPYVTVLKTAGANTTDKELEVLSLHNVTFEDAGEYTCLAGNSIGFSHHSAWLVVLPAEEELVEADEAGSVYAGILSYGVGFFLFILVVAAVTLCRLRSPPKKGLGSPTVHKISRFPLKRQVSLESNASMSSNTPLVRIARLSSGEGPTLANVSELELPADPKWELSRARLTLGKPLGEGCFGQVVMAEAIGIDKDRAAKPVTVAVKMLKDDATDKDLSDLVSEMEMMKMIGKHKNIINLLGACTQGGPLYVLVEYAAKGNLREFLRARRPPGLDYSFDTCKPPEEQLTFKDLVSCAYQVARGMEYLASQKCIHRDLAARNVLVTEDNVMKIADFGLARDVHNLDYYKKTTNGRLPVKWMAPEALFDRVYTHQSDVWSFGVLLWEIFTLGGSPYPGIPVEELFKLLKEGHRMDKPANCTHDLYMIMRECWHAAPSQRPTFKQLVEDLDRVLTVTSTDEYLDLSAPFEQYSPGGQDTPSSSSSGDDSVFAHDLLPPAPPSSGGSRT
Procedure, shortened: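 Kinase at 0.7 μg/ml with 4 μM Z-LYTE Tyr 4 peptide and ATP diluted to 300 uM (working solution, 1.33× buffer); compounds 1–0.00046 μM, 2% DMSO final. Kinase reaction and development each 1 h at RT (25-30[…]); coumarin (445 nm) and fluorescein (520 nm) emission read, inhibition from % phosphorylation.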

KG-1 = assay: Cellular Proliferation Assay (Cell Counting Kit-8), KG-1; format: cell-based; conditions: Homo sapiens, KG1 cells, 72 hours
Procedure, shortened: (§1)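 Seeding was 30,000 (KG-1), 5,000 (SNU-16) or 1,000 (RT-112) cells per well, with compound added 24 h later. Dilutions were prepared as an 8-point series of 10 to 0.004 μM in 5% DMSO, before addition to wells.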

SNU-16 = assay: Cellular Proliferation Assay (Cell Counting Kit-8), SNU-16; format: cell-based; conditions: Homo sapiens, SNU-16 cells, 72 hours
Procedure, shortened: as §1

RT-112 = assay: Cellular Proliferation Assay (Cell Counting Kit-8), RT-112; format: cell-based; conditions: Homo sapiens, RT-112 cells, 72 hours
Procedure, shortened: as §1

Sequence of Recombinant human FGFR1 (P11362 22-822): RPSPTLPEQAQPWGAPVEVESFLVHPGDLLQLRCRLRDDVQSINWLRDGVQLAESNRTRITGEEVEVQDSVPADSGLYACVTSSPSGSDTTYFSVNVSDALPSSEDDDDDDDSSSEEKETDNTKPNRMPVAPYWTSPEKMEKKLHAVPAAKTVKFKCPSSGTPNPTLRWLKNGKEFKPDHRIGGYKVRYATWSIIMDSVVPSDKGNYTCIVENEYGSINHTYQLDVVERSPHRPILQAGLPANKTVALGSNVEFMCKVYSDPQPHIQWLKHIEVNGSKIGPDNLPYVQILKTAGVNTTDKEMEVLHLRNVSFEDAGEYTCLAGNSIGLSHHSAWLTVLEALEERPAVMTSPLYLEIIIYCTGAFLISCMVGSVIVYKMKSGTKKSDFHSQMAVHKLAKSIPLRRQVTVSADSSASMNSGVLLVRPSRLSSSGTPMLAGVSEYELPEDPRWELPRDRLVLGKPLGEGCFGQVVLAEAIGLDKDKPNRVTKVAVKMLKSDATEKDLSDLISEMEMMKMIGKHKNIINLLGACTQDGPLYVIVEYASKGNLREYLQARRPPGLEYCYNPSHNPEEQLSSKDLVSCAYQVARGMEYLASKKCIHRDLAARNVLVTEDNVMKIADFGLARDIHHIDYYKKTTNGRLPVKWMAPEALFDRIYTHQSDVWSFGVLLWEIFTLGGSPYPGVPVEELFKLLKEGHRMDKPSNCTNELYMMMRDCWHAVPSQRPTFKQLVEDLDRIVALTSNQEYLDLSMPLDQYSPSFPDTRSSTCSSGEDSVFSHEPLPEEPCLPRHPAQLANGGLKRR

Row | IC50 (Recombinant human FGFR1) [nM] | IC50 (Recombinant human FGFR2) [nM] | IC50 (FGFR3 kinase) [nM] | IC50 (SNU-16) [nM] | Structure (SMILES) | IC50 (KG-1) [nM] | IC50 (RT-112) [nM]
1 | 6 | 5 | 9 | 14 | CNC(=O)c1cc(CCc2cnc(Nc3ccc(N4CCNCC4)cc3)nc2)c(Cl)c(OC)c1 [Compound 196] | 51 | 20
2 | 8 | 7 | 9 | 8 | CNC(=O)c1cc(COc2cnc(Nc3ccc(N4C[C@@H](C)N[C@@H](C)C4)nc3)nc2)c(Cl)c(OC)c1 [Compound 197] | 26 | 25
3 | 13 | 7 | 8 | 18 | CNC(=O)c1cc(OC)c(F)c(COc2cnc(Nc3ccc(N4C[C@@H](C)N[C@@H](C)C4)cc3)nc2)c1F [Compound 199] | 20 | 41
4 | 9 | 6 | 6 | 20 | CNC(=O)c1cc(CCc2cnc(Nc3ccc(N4CCNC(C)(C)C4)cc3)nc2)c(Cl)c(OC)c1 [Compound 200] | 91 | 34
5 | 29 | 12 | 19 | 19 | CNC(=O)c1cc(COc2cnc(Nc3ccc(N4C[C@@H](C)N[C@@H](C)C4)nc3)nc2)c(F)c(OC)c1 [Compound 201] | 1100 | 66
6 | 11 | 8 | 14 | 23 | CCn1cc(Nc2ncc(OCc3c(F)c(OC)cc(C(=O)NC)c3F)cn2)cn1 [Compound 203] | 11 | 37
7 | 9 | 5 | 8 | 7 | CNC(=O)c1cc(CCc2cnc(Nc3ccc(N4C[C@@H](C)N[C@@H](C)C4)c(F)c3)nc2)c(Cl)c(OC)c1 [Compound 204] | 18 | 15
8 | 36 | 25 | 28 | 37 | CCNC(=O)c1cc(COc2cnc(Nc3ccc(N4C[C@@H](C)N[C@@H](C)C4)cc3)nc2)c(F)c(OC)c1 [Compound 205] | 68 | 97
9 | 10 | 5 | 9 | 17 | CNC(=O)c1cc(CCc2cnc(Nc3ccc(N4C[C@@H](C)N[C@@H](C)C4)c(C)c3)nc2)c(Cl)c(OC)c1 [Compound 208] | 60 | 21
10 | 7 | 6 | 7 | 8 | CNC(=O)c1cc(COc2cnc(Nc3ccc(N4C[C@@H](C)N[C@@H](C)C4)c(C)c3)nc2)c(Cl)c(OC)c1 [Compound 209] | 13 | 16
11 | 18 | 9 | 21 | 53 | CNC(=O)c1cc(COc2cnc(Nc3ccc(O)cc3)nc2)c(F)c(OC)c1 [Compound 211] | 84 | 163
